# Key:
# [1] = target: T1, androgen receptor (Homo sapiens, UniProt P10275); experiment: Androgen receptor luciferase reporter (ARR3tk-luc) assay; assay type: cell-based; settings: PC3 cells transfected with AR; 1 nM R1881; 1, 5 or 10 μM
# T1 construct: expressed in transfected cells; host or cells: PC3
# T1 sequence (P10275 1-920): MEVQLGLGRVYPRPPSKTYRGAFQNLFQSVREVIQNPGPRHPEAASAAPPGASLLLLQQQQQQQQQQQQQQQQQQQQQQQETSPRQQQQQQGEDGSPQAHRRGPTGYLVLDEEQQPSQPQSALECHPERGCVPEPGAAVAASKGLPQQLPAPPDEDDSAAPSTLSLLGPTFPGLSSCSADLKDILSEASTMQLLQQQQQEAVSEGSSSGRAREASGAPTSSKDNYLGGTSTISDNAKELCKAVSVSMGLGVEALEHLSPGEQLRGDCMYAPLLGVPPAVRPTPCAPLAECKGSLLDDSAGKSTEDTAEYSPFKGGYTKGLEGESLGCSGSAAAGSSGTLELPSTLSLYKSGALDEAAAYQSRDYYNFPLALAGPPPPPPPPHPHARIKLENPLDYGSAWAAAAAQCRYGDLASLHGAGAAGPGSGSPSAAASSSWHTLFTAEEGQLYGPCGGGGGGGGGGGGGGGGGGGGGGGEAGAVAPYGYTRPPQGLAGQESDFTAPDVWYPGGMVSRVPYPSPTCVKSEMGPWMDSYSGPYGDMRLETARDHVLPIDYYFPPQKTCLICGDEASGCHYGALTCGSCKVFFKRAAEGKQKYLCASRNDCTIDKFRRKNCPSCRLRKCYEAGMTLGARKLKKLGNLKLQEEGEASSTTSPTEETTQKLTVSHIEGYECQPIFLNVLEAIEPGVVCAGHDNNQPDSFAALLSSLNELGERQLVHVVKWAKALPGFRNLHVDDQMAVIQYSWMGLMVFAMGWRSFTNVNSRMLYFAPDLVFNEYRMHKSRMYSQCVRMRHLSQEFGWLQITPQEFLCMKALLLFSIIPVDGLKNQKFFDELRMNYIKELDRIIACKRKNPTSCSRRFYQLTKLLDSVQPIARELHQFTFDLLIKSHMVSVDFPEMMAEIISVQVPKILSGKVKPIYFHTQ
# Description: All of the compounds selected from the virtual screening were tested in a luciferase-based ERG-responsive reporter assay, using two ERG-overexpressing cell lines, VCaP and PNT1B-ERG, previously developed in house. […] Data were normalized first to Renilla luciferase and then to the DMSO-media control on each plate, unless otherwise stated. Initial hit compounds were identified as those with an average normalized luciferase reading (firefly luciferase/Renilla luciferase readings) that is 60% or less of the average normalized luciferase reading of the DMSO-media control (i.e. 40% or more reduction of luciferase activity) at 10 μM. Representative example of raw Renilla luciferase readings presented in Supplementary Figure 9B. […]
# Supplementary Figure 3: VPC-18005 selectively suppresses ERG-mediated transcriptional activity. […] Data are presented as the mean ± SEM of 4 technical replicates and expressed as luciferase:renilla ratio (activity).
# (B) Luciferase assay was performed on VCaP cells transfected with ETS responsive luciferase reporter and treated with DMSO (0) or 0.1, 1, or 10 nM R1881 in the presence of 25 μM of VPC-18005. Data are presented as the mean ± SEM of 4 technical replicates and expressed as the luciferase:renilla ratio relative to VPC-18005 alone. […]
# [2] = system: SOX9; experiment: SOX9 gene expression in VCaP cells; assay type: cell-based, human; settings: 25 μM, with and without 1 nM R1881
# Description: Total RNA was extracted from VCaP cells with the use of RNeasy Plus kit (Qiagen). Reverse transcription was performed with the use of the iScript First-Strand cDNA Synthesis Kit (Bio-Rad Laboratories) with 100 ng total RNA used as template. Real time reverse-transcription (RT) polymerase chain reaction (PCR) primers for ERG synthesized by IDT (forward, 5′- CGCAGATTATCGT GCCAGCAGAT -3′; reverse, 5′- CCATATTCTTTCACC GCCCACTCC-3′) and SOX9 (Quantitect primer assay, Qiagen). Real-time quantitative RT-PCR was performed in triplicate for each sample with the use of the ABI ViiA7 QPCR thermocycler. In each reaction, 1 μl cDNA, 1 μl forward and reverse primers (or 1 μl of Quantitect primers), and 6 μl Sybr Green Master Mix (Applied Biosystems) were added with water to make a final volume of 12 μl. All primers were used at a concentration of 5 μmol/l. PCR cycling conditions were 95°C for 10 minutes followed by 40 cycles of 95°C for 15 seconds, 60°C for 1 min. Data was normalized to reference genes: GAPDH (forward, 5′- […] -3′; reverse, 5′- […] -3′) The 2^−ΔΔCT method was used to compare samples. PCR product specificity was validated with the use of a melt curve.
# [3] = system: RWPE-ERG cells; experiment: Real time cell migration (xCELLigence), RWPE-ERG; assay type: cell-based; settings: 5 µM; compared to MOCK control
# Description: Cell migration was monitored using CIM-16 migration plates via the xCELLigence platform (ACEA). FBS-supplemented media (160 μL) was added to the lower chamber of the plate and incubated at RT for 30 min. The upper chamber was then mounted and 30 μL of serum free media (SFM) was added to each well and left to equilibrate in the incubator for 1 h at 37°C. After the incubation, a background reading was taken for each well. […] Real time readings of cell index values were recorded initially every 5 min until the end of the experiment (48 hr). page 8: Supplementary Figure 4: VPC-18005 suppresses migration, but not growth of RWPE-1-ERG cells. (A) Cell viability (MTS) of ERG-expressing cells (RWPE-ERG) (closed circle) and non-ERG expressing cells (RWPE-MOCK (open square)) after treatment […] Impact on viability is presented as the mean ± SEM […] (B) RWPE-1-Mock or (C) […] The normalized cell index is a measure of the migration of the cells through the pores of the upper chamber and is used as the migration index. Dotted lines represent 1 standard deviation (SD) of the mean migration rate.
smiles,measurement,setting,value
"CC(C)c1ccc(C=N/N=C2\NC(=O)[C@@H](CC(=O)O)S2)cc1 (stereo in doubt) [VPC-18005, 2-((Z)-2-(((Z)-4-isopropylbenzylidene)hydrazono)-4-oxothiazolidin-5-yl)acetic acid]",Effect on androgen receptor luciferase reporter (ARR3tk-luc) expression,[1],no significant effect
same,Basal and R1881-stimulated SOX9 mRNA and protein expression,[2],markedly decreased
same,Effect on RWPE-ERG cell migration,[3],moderate effect

# — PMC5522078, “Discovery and characterization of small molecules targeting the DNA-binding ETS domain of ERG in prostate cancer” (Oncotarget, 2017)
